Data published in ChEMBL document CHEMBL1201862, “PubChem BioAssay data set” (2004).
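Five concentrations, 48 hours, 96-well plates. GI50 = concentration required for 50% inhibition of growth.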 The source made the active and inactive calls. Rule as the data show it: active = GI50 up to about 1.1 µM and inactive = higher.

Key:
Assay in all cases: inhibition of tumour cell growth, NCI panel, 48 h
[1] = test system: 786-0
[2] = test system: A498
[3] = test system: A549
[4] = test system: ACHN
[5] = test system: CAKI-1
[6] = test system: CCRF-CEM
[7] = test system: COLO 205
[8] = test system: DLD-1
[9] = test system: DMS-114
[10] = test system: DMS-273
[11] = test system: EKVX
[12] = test system: HCT-116
[13] = test system: HCT-15
[14] = test system: HL-60
[15] = test system: HOP-18
[16] = test system: HOP-62
[17] = test system: HOP-92
[18] = test system: HT-29
[19] = test system: IGROV-1
[20] = test system: K562
[21] = test system: KM-20L2
[22] = test system: KM12
[23] = test system: LOX IMVI
[24] = test system: LXFL 529
[25] = test system: M14
[26] = test system: M19-MEL
[27] = test system: MOLT-4
[28] = test system: Malme-3M
[29] = test system: NCI-H226
[30] = test system: NCI-H23
[31] = test system: NCI-H460
[32] = test system: NCI-H522
[33] = test system: OVCAR-3
[34] = test system: OVCAR-4
[35] = test system: OVCAR-5
[36] = test system: OVCAR-8
[37] = test system: RXF 393
[38] = test system: RXF 631
[39] = test system: SF-268
[40] = test system: SF-295
[41] = test system: SF-539
[42] = test system: SK-MEL-28
[43] = test system: SK-MEL-2
[44] = test system: SK-MEL-5
[45] = test system: SK-OV-3
[46] = test system: SN12C
[47] = test system: SNB-19
[48] = test system: SNB-75
[49] = test system: SR
[50] = test system: SW-620
[51] = test system: TK-10
[52] = test system: U-251
[53] = test system: UACC-257
[54] = test system: UACC-62
[55] = test system: UO-31
[56] = test system: XF498
[57] = test system: RPMI-8226
[58] = test system: SNB-78

SMILES: CC(=O)O/N=C/c1ncccc1CO
- GI50 [1]: > 100 µM (inactive)
- GI50 [2]: > 100 µM (inactive)
- GI50 [3]: > 100 µM (inactive)
- GI50 [4]: > 100 µM (inactive)
- GI50 [5]: > 100 µM (inactive)
- GI50 [6]: > 100 µM (inactive)
- GI50 [7]: > 100 µM (inactive)
- GI50 [8]: > 100 µM (inactive)
- GI50 [9]: > 100 µM (inactive)
- GI50 [10]: > 100 µM (inactive)
- GI50 [11]: > 100 µM (inactive)
- GI50 [12]: > 100 µM (inactive)
- GI50 [13]: > 100 µM
- GI50 [14]: > 100 µM (inactive)
- GI50 [15]: > 100 µM (inactive)
- GI50 [16]: > 100 µM (inactive)
- GI50 [17]: > 100 µM (inactive)
- GI50 [18]: > 100 µM (inactive)
- GI50 [19]: > 100 µM (inactive)
- GI50 [20]: > 100 µM (inactive)
- GI50 [21]: > 100 µM (inactive)
- GI50 [22]: > 100 µM (inactive)
- GI50 [23]: > 100 µM (inactive)
- GI50 [24]: > 100 µM (inactive)
- GI50 [25]: > 100 µM (inactive)
- GI50 [26]: > 100 µM (inactive)
- GI50 [27]: > 100 µM (inactive)
- GI50 [28]: > 100 µM (inactive)
- GI50 [29]: > 100 µM (inactive)
- GI50 [30]: > 100 µM (inactive)
- GI50 [31]: > 100 µM (inactive)
- GI50 [32]: > 100 µM (inactive)
- GI50 [33]: > 100 µM (inactive)
- GI50 [34]: > 100 µM (inactive)
- GI50 [35]: > 100 µM (inactive)
- GI50 [36]: > 100 µM (inactive)
- GI50 [37]: > 100 µM (inactive)
- GI50 [38]: > 100 µM (inactive)
- GI50 [39]: > 100 µM (inactive)
- GI50 [40]: > 100 µM (inactive)
- GI50 [41]: > 100 µM (inactive)
- GI50 [42]: > 100 µM (inactive)
- GI50 [43]: > 100 µM (inactive)
- GI50 [44]: > 100 µM (inactive)
- GI50 [45]: > 100 µM (inactive)
- GI50 [46]: > 100 µM (inactive)
- GI50 [47]: > 100 µM (inactive)
- GI50 [48]: > 100 µM (inactive)
- GI50 [49]: > 100 µM (inactive)
- GI50 [50]: > 100 µM (inactive)
- GI50 [51]: > 100 µM (inactive)
- GI50 [52]: > 100 µM (inactive)
- GI50 [53]: > 100 µM (inactive)
- GI50 [54]: > 100 µM (inactive)
- GI50 [55]: > 100 µM (inactive)
- GI50 [56]: > 100 µM (inactive)

SMILES: C/C(Cc1ccccc1)=N\NC(N)=S
- GI50 [2]: > 100 µM (inactive)
- GI50 [4]: > 100 µM (inactive)
- GI50 [6]: > 100 µM (inactive)
- GI50 [7]: > 100 µM (inactive)
- GI50 [9]: 76 µM (inactive)
- GI50 [10]: > 100 µM (inactive)
- GI50 [13]: > 100 µM
- GI50 [14]: > 100 µM (inactive)
- GI50 [15]: > 100 µM (inactive)
- GI50 [17]: 67.1 µM (inactive)
- GI50 [19]: > 100 µM (inactive)
- GI50 [20]: > 100 µM (inactive)
- GI50 [21]: > 100 µM (inactive)
- GI50 [23]: > 100 µM (inactive)
- GI50 [24]: > 100 µM (inactive)
- GI50 [25]: > 100 µM (inactive)
- GI50 [26]: > 100 µM (inactive)
- GI50 [27]: > 100 µM (inactive)
- GI50 [30]: > 100 µM (inactive)
- GI50 [31]: > 100 µM (inactive)
- GI50 [34]: > 100 µM (inactive)
- GI50 [57]: 92.9 µM (inactive)
- GI50 [37]: 70.1 µM (inactive)
- GI50 [38]: > 100 µM (inactive)
- GI50 [41]: > 100 µM (inactive)
- GI50 [42]: > 100 µM (inactive)
- GI50 [45]: > 100 µM (inactive)
- GI50 [46]: > 100 µM (inactive)
- GI50 [47]: > 100 µM (inactive)
- GI50 [48]: > 100 µM (inactive)
- GI50 [58]: > 100 µM (inactive)
- GI50 [52]: > 100 µM (inactive)
- GI50 [54]: > 100 µM (inactive)
- GI50 [56]: > 100 µM (inactive)
